Reference: patent publication US20190161480A1, “Chemical Compounds” (GLAXOSMITHKLINE INTELLECTUAL PROPERTY DEVELOPMENT LIMITED, priority 2016, published 2019)
Entries after “also recorded” stand apart in the source; their conditions may differ.

How the values were obtained:
PI3Kγ = PI3Kγ (Homo sapiens, UniProt P48736); test: PI3K HTRF assay, PI3K-gamma; type: biochemical; conditions: read-out: pIC50 PI3Kγ (converted); also: 15 µM ATP
Experimental: (§1) The binding of compounds to PI3K-alpha/beta/delta/gamma is determined by homogeneous time resolved fluorescence (HTRF) assays as follows;
(§2) Briefly, solid compound is dissolved in 100% DMSO at a concentration of 2 mM. Dilutions are prepared in 100% DMSO using a 1 in 4 serial step dilution. The dilutions are transferred to black low volume Greiner assay plates ensuring that the DMSO concentration is constant across the plate at 1% (0.1 μL/well).
(§3) PI3K Reaction Buffer (contains 50 mM HEPES pH 7.0 (NaOH), 150 mM NaCl, 10 mM MgCl2, 2.3 mM sodium cholate, […] CHAPS made up in milliQ water). Fresh DTT is added at a final concentration of 1 mM on the day of use.
(§4) Enzyme solutions: 1× PI3K Assay Buffer containing: • 550 pM PI3K-Alpha enzyme (275 pM final assay concentration) • 800 pM PI3K-Beta enzyme (400 pM final assay concentration) • 3 nM PI3K-Delta enzyme (1.5 nM final assay concentration) • 10 nM PI3K-Gamma enzyme (5 nM final assay concentration)
(§5) These concentrations are optimal to achieve a signal:background of between 1.5-4.5. The enzyme solution is added to columns 1-24 (3 μL/well) and plates are incubated for 15 minutes at room temperature.
(§6) Substrate solution: 1× PI3K Assay Buffer containing: • PI3K-Alpha: 500 μM ATP, 20 μM PIP2 and 120 nM biotin-PIP3.
(§7) This is added to all wells and plates are incubated for 1 hour at room temperature.
(§8) Detection solution: PI3K Detection Buffer (contains 50 mM HEPES pH 7.0 (HCl), 150 mM NaCl, 2.3 mM sodium cholate, 10 μM CHAPS, 240 mM potassium fluoride) containing 2 mM DTT (2× final assay concentration), 90 nM GRP-1 PH domain, 300 nM Streptavidin-APC and 24 nM Europium-anti-GST (6× final assay concentrations).
(§9) This is mixed left at room temperature (protected from light).
(§10) STOP solution: PI3K STOP Buffer (contains 50 mM HEPES pH 7.0 (HCl), 150 mM NaCl, 2.3 mM sodium cholate, 10 μM CHAPS, 150 mM EDTA).
(§11) Detection solution is diluted 1:1 with STOP solution and added to all wells (3 μL/well). Plates are covered and incubated on the bench for 45-60 minutes.
(§12) Plates are read on a PerkinElmer Envision, measuring TR-FRET between the complex formed between the GST-tagged PH domain and biotinylated PIP3 which both recruit fluorophores (Europium-labelled anti-GST & Strep-APC respectively). In the […] of an inhibitor, this complex is disrupted by the competitive action of non-biotinylated PIP3 (formed in the assay by the phosphorylation of PIP2 by the kinase & ATP). From this, the ratio of acceptor/donor was calculated (λex=317 nm, Δem donor=615 nm, Δem acceptor=665 nm) and used for data analysis.

PI3Kβ = PI3Kβ (Homo sapiens, UniProt P42338); test: PI3K HTRF assay, PI3K-beta; type: biochemical; conditions: read-out: pIC50 PI3Kβ (converted); also: 400 µM ATP
Experimental: as §1, §2, §3, §4, §5, §6, §7, §8, §9, §10, §11, §12

PI3Kδ in CD4+ T cells = test: Cellular washout in CD4+ T cells (αCD3 stimulation, IFNγ readout); type: cell-based, human; conditions: IC50 curve 48 h after washing cells versus no wash; five donors
Experimental: CD4+T cells were isolated from leukodepletion filter samples taken from healthy volunteers using Histopaque 1077 (Sigma Aldrich). Briefly, blood was allowed to drip into a 50 mL falcon tube and mixed with PBS (40 mL). 20 mL of diluted blood was then slowly layered onto 15 mL of Histopaque in a 50 mL falcon tube, which was then centrifuged at 800 rcf for 20 min at room temperature. The PBMC layer was then collected with a pasteur pipette into a new 50 mL falcon tube, and up to 50 mL of PBS was added. Cells were centrifuged at 300-400 rcf for 10 min at room temperature, supernatant was discarded and a second washing step was performed with PBS. Cells were then resuspended in 40 mL PBS+0.5% Bovine Serum Albumin (BSA). Isolation of CD4+T cells was performed according to manufacturer's protocol (Miltenyi Biotec, 130-096-533). 1×10^6 CD4+T cells were dispensed into a 24 well plate with a final volume of 1 mL per well. Compounds at 1000× the final assay concentration, or DMSO, were then added to wells and cells were incubated for 2 h. 2×10^5 cells and media was added to a 96-well plate (in duplicate) and classified as no-wash. […] Supernatant and cells were centrifuged at 800 rcf for 5 min and 120 μL of supernatant was collected and analysed using MSD IFNγ kit as detailed above for the human whole-blood assay. […]

PI3Kα = PI3Kα (Homo sapiens, UniProt P42336); test: PI3K HTRF assay, PI3K-alpha; type: biochemical; conditions: read-out: pIC50 PI3Kα (converted); also: 250 µM ATP
Experimental: as §1, §2, §3, §4, §5, §6, §7, §8, §9, §10, §11, §12

PI3Kδ [1] = target: T1, PI3Kδ (Homo sapiens, UniProt O00329); test: PI3Kδ jump dilution experiment; type: biochemical; conditions: 15 min incubation, 100-fold dilution, read for 30 minutes
Experimental: Irreversibility of the PI3Kδ-Inhibitor complex, and reversibility of the non-covalent controls, was determined by jump-dilution assay as follows:
PI3Kδ enzyme was made up to a 100× assay concentration (final assay concentration=6 nM) in buffer solution (contains 50 mM HEPES pH 7.0 (NaOH), 150 mM NaCl, 10 mM MgCl2, 2.3 mM sodium cholate, 10 μM CHAPS made up in milliQ water).
100× enzyme solution was added to compound wells (20 μL/well), and incubated for 15 mins, after which point the assay was diluted 100-fold with commercially available ADP QUEST substrate solution, available from DiscoverX (calatog number: 90-0071), (3200 μL DiscoverX Reagent A, 6400 μL DiscoverX Reagent B, 1 mM ATP and 40 μM PIP2). Production of fluorescence signal was then measured immediately using a Tecan Safire II plate reader at 30 second intervals for 30 minutes (λex=544 nm, λem=590 nm).

PI3Kδ [2] = target: T1, PI3Kδ; test: Protein mass spectrometry: covalent adduct assessment and competition experiment; type: binding
Experimental: Compounds were incubated with 1 μM protein in a 10:1 inhibitor:protein ratio in buffer containing 50 mM HEPES, pH 7.0 (NaOH), 150 mM NaCl, 10 mM MgCl2, 2.3 mM cholate, 10 μM CHAPS. After the desired time, the assays were quenched with a 10% formic acid solution, and analysed by LCMS using an Agilent 6224 TOF LC/MS equipped with Agilent 1200 Series autosampler. Analytes were separated on a Polymer Labs (Agilent) PLRP-S column (50 mm×1 mm internal diameter, 5 μm particle size). LC conditions were 0.5 mL·min^−1 flow rate, 70° C., 10 μL injection volume. Gradient elution with (A) water containing 0.2% (v/v) formic acid and (B) acetonitrile containing 0.2% (v/v) formic acid. Gradient conditions were initially 10% B, increasing to 30% after 0.5 min, and then linearly to 80% B over 4.5 min, prior to a 1.2 min flush with 100% B and then a 1.9 minute equilibration with 10% B prior to the next injection. Mass spectra were then deconvoluted using Agilent MassHunter Qualitative Analysis version B.06.00 over the mass range 70-170 kDa to obtain the intact protein mass.
A potent reversible ATP competitive inhibitor was incubated with 1 μM protein in a 10:1 inhibitor:protein ratio in buffer containing 50 mM HEPES, pH 7.0 (NaOH), 150 mM NaCl, 10 mM MgCl2, 2.3 mM cholate, 10 μM CHAPS at room temperature. […] The assay was quenched at 5 min and analysed using the procedure detailed above.

T1 sequence (O00329 whole entry): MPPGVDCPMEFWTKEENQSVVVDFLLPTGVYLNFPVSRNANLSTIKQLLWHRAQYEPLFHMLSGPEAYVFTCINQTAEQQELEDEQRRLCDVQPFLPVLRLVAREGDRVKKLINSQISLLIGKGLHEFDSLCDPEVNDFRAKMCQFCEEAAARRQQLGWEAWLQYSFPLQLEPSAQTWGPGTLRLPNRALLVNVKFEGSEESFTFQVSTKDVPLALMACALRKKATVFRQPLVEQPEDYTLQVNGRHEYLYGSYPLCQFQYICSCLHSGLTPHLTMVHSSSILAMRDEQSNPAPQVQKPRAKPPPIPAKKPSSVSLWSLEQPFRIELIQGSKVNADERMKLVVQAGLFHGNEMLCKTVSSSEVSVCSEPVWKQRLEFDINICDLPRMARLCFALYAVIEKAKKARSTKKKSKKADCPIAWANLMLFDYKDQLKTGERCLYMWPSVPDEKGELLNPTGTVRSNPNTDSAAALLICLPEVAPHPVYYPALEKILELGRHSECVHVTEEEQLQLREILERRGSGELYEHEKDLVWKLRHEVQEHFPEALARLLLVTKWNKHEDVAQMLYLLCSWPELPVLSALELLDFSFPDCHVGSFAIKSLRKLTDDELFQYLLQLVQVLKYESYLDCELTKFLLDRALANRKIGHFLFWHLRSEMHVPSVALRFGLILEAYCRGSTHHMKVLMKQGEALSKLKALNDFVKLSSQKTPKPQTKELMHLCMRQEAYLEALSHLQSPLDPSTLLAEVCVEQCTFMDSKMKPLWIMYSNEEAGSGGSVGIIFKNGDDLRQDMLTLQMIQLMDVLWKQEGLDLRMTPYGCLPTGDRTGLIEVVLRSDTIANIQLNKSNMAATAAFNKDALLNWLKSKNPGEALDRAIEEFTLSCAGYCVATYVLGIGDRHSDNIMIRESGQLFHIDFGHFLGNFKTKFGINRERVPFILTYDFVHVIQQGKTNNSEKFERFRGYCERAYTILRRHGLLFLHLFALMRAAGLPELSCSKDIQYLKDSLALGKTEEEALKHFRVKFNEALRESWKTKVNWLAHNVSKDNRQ
T1 sequence (P27986 whole entry partner): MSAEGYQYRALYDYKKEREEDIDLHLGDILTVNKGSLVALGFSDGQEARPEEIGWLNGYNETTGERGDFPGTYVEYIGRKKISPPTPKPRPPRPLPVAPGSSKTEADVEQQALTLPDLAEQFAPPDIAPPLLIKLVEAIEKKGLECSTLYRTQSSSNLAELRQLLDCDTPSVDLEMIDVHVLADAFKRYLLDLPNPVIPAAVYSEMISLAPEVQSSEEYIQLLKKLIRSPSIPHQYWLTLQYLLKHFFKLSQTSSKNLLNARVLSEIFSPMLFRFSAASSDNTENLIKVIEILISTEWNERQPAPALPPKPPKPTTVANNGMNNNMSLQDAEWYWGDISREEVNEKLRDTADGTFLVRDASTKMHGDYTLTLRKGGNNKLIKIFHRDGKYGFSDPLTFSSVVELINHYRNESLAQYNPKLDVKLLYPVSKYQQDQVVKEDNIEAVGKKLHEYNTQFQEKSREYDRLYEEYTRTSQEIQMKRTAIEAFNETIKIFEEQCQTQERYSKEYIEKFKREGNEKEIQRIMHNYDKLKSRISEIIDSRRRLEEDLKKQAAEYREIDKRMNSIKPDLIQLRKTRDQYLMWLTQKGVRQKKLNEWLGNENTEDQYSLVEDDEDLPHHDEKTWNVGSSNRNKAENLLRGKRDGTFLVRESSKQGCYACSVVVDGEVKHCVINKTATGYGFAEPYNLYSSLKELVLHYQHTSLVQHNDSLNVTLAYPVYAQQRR
Chain of PI3Kγ (P48736 whole entry, species assumed): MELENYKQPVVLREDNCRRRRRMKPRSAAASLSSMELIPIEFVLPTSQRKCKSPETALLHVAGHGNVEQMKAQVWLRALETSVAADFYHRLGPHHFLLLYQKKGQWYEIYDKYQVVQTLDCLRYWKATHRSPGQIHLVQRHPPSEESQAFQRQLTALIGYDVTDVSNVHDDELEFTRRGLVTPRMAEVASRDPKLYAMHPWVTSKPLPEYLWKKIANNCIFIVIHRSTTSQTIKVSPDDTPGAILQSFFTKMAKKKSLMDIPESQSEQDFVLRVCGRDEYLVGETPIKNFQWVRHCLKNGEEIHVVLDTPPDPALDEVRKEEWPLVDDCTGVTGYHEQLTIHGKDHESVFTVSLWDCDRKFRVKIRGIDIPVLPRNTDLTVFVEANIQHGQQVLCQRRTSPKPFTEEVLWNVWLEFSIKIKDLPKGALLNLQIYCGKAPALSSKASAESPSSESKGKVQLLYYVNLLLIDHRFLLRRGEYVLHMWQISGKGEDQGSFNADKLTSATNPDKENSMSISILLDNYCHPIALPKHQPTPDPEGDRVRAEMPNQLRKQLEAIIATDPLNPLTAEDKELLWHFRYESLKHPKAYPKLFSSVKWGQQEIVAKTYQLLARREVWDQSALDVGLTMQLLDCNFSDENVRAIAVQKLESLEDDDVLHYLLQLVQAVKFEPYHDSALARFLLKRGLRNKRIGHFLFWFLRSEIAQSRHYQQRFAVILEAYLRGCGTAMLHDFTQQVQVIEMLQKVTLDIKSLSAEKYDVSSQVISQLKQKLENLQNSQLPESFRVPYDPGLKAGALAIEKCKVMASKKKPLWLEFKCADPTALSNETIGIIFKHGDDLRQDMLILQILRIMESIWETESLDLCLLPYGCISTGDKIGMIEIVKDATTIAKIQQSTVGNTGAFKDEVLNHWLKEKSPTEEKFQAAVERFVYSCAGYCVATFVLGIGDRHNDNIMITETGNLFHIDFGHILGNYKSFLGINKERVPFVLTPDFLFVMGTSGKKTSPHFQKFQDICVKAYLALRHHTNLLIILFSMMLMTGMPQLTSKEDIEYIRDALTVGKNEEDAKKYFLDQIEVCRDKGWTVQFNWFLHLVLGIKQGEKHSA
Chain of PI3Kβ (P42338 whole entry, species assumed): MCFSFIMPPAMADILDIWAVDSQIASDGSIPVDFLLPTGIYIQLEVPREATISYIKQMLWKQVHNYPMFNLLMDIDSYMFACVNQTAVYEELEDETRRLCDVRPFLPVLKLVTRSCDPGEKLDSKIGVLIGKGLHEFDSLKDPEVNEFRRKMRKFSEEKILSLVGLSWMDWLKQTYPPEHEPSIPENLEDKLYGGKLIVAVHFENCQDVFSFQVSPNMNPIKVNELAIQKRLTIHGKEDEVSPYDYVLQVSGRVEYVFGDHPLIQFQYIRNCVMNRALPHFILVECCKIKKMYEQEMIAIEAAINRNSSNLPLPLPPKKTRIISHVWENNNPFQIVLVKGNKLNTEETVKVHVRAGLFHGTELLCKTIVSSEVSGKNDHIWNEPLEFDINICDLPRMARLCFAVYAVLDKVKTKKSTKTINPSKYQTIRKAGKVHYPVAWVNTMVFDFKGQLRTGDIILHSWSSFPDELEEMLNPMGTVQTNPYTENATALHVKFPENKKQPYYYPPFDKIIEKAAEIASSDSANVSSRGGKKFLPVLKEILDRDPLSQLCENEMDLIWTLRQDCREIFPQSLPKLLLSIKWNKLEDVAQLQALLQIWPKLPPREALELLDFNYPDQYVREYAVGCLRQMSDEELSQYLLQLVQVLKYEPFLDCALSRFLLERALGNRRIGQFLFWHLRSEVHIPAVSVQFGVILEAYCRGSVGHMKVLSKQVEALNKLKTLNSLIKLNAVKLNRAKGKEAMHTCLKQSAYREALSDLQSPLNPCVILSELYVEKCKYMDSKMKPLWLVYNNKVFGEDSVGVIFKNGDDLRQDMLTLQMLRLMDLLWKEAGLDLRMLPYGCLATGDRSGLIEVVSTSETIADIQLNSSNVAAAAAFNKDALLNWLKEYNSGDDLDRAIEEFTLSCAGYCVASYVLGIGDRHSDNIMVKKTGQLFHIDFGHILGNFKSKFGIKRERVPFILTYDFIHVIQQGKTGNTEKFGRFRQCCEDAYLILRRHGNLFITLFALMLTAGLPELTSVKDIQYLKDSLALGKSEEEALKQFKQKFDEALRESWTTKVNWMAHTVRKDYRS
Chain of PI3Kβ (P27986 whole entry partner, species assumed): as the sequence (P27986 whole entry partner) above
Chain of PI3Kα (P42336 whole entry, species assumed): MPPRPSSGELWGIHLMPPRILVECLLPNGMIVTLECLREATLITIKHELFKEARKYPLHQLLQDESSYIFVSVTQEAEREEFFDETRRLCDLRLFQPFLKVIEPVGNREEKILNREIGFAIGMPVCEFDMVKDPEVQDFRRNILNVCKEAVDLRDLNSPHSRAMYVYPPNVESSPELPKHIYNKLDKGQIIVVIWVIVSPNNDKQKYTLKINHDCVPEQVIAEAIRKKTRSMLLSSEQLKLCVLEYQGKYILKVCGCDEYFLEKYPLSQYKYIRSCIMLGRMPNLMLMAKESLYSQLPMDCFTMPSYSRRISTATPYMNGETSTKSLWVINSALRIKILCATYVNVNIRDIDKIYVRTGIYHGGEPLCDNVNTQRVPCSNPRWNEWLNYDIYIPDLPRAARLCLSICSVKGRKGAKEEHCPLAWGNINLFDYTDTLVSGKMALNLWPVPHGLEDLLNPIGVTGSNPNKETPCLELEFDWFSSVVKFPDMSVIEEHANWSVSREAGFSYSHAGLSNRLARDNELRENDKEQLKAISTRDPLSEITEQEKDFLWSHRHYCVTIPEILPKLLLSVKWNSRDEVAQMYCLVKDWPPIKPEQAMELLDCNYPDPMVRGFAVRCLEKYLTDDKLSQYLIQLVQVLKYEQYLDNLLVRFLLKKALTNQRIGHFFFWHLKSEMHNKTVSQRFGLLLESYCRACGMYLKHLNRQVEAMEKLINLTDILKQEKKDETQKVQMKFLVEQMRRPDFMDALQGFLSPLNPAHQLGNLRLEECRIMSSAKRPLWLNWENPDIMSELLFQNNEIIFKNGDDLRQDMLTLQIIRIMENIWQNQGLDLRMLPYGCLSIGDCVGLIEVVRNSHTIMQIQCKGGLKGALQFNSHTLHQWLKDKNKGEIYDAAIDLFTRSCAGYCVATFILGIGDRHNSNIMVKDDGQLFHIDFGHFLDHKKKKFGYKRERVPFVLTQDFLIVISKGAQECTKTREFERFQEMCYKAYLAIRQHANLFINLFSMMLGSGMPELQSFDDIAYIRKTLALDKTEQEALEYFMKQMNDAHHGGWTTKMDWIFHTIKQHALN
Chain of PI3Kα (P27986 whole entry partner, species assumed): as the sequence (P27986 whole entry partner) above

For `COc1ncc(-c2cc(-c3ncc(CN4CCN(C(C)C)CC4)o3)c3cn[nH]c3c2)cc1C(=O)Oc1ccc(F)cc1` [Example 7, 4-Fluorophenyl 5-(4-(5-((4-isopropylpiperazin-1-yl)methyl)oxazol-2-yl)-1H-indazol-6-yl)-2-methoxynicotinate], the IC50 (PI3Kγ) was 15.8 µM, the IC50 (PI3Kβ) was 5.01 µM and the “Duration of action at PI3Kδ in CD4+ T cells” value (PI3Kδ in CD4+ T cells) was “at least 48 h”. The IC50 (PI3Kα) was 3.16 µM, the “Recovery of enzyme activity after jump dilution” value (PI3Kδ [1]) was “No recovery of activity” and the “Additional adducts on PI3Kδ” value (PI3Kδ [2]; 10:1 inhibitor:protein ratio, after 20 h (overnight)) was “no additional adducts”. The “Covalent modification of PI3Kδ (protein mass spectrometry)” value (PI3Kδ [2]; 10:1 inhibitor:protein, incubated overnight) was “covalently modified” and the “Adduct formation after preincubation of enzyme with potent ATP-competitive inhibitor” value (PI3Kδ [2]; competitor 10:1 for 15 min, then 2 equivalents of covalent inhibitor, quenched at 5 min) was “prevented covalent modification; also recorded: attentuated formation of this adduct”.
